Like-named read-outs stand apart in the source and are kept apart here.
Assays:
[1] = cited from earlier work
[2] = test system: CAR-T cells; experiment: CAR-T cell expansion assay (KIP-1 or CD3/CD28 stimulation); details: CD3/CD28
[3] = test system: CD19 CAR T cells; experiment: CAR T cell cytokine production (Luminex) under CD19 K562, KIP-1 or CD2/3/28 stimulation; details: 72 h; for IC50: Homo sapiens, T-cell
[4] = read-out: Suppression of cytokine production, GMCSF (IC50), CD3/CD28 stimulation, 72 h
[5] = read-out: Suppression of cytokine production, GMCSF (IC50), K562-CD19 stimulation, 72 h
[6] = read-out: Suppression of cytokine production, GzB (IC50), CD3/CD28 stimulation, 72 h
[7] = read-out: Suppression of cytokine production, GzB (IC50), K562-CD19 stimulation, 72 h
[8] = read-out: Suppression of cytokine production, GzB (IC50), KIP-1 stimulation, 72 h
[9] = read-out: Suppression of cytokine production, IFNg (IC50), CD3/CD28 stimulation, 72 h
[10] = read-out: Suppression of cytokine production, IFNg (IC50), KIP-1 stimulation, 72 h
[11] = read-out: Suppression of cytokine production, IL-2Ra (IC50), CD3/CD28 stimulation, 72 h
[12] = read-out: Suppression of cytokine production, IL-2Ra (IC50), K562-CD19 stimulation, 72 h
[13] = read-out: Suppression of cytokine production, IL-8 (IC50), CD3/CD28 stimulation, 72 h
[14] = read-out: Suppression of cytokine production, IL-8 (IC50), K562-CD19 stimulation, 72 h
[15] = read-out: Suppression of cytokine production, IL-10 (IC50), CD3/CD28 stimulation, 72 h
[16] = read-out: Suppression of cytokine production, MIG (IC50), CD3/CD28 stimulation, 72 h
[17] = read-out: Suppression of cytokine production, MIP-1a (IC50), CD3/CD28 stimulation, 72 h
[18] = read-out: Suppression of cytokine production, MIP-1a (IC50), K562-CD19 stimulation, 72 h
[19] = read-out: Suppression of cytokine production, MIP-1a (IC50), KIP-1 stimulation, 72 h
[20] = read-out: Suppression of cytokine production, MIP-1b (IC50), CD3/CD28 stimulation, 72 h
[21] = read-out: Suppression of cytokine production, MIP-1b (IC50), K562-CD19 stimulation, 72 h
[22] = read-out: Suppression of cytokine production, MIP-1b (IC50), KIP-1 stimulation, 72 h
[23] = read-out: Suppression of cytokine production, Perforin (IC50), CD3/CD28 stimulation, 72 h
[24] = read-out: Suppression of cytokine production, Perforin (IC50), K562-CD19 stimulation, 72 h
[25] = read-out: Suppression of cytokine production, Perforin (IC50), KIP-1 stimulation, 72 h

Which “Cmax” value ([1]; human, in vivo) does the source give for `C[C@@H]1C[C@H]2[C@@H]3CCC4=CC(=O)C=C[C@]4(C)[C@@]3(F)[C@@H](O)C[C@]2(C)[C@@]1(O)C(=O)CO` [dexamethasone] here?
Its value is 115 ng/mL.

What about the Protein binding ([1]; plasma protein binding, reported) of the same compound?
The Protein binding was 77%.

What about the “% viability” value ([2]; dose 50 nM, day 4) of the same compound?
Its value is 45.9%.

And the “% viability” value ([2]; dose 50 nM, day 8)?
Its value is 44.4%.

What about the “% viability” value ([2]; dose 50 nM, day 12) of the same compound?
The value was 74.7%.

And the “% viability” value ([2]; dose 100 nM, day 4)?
Its value is 53.4%.

And the “% viability” value ([2]; dose 100 nM, day 8)?
The value was 51.3%.

What about the “% viability” value ([2]; dose 100 nM, day 12) of the same compound?
The value was 66.3%.

And the “Suppression of cytokine production, MCP-1, % inh.” value ([3]; CD3/CD28 stimulation)?
Its value is greater than 80% inh.

And the “Suppression of cytokine production, TNFa, % inh.” value ([3]; CD3/CD28 stimulation)?
The value was greater than 50% inh.

And the IC50 [3, 4]?
The IC50 was greater than 10000 nM.

What about the IC50 [3, 5] of the same compound?
Its IC50 is greater than 10000 nM.

And the IC50 [3, 6]?
The IC50 was greater than 10000 nM.

And the IC50 [3, 7]?
Its IC50 is greater than 10000 nM.

And the IC50 [3, 8]?
The IC50 was greater than 10000 nM.

And the IC50 [3, 9]?
Its IC50 is greater than 10000 nM.

And the IC50 ([3]; read-out: Suppression of cytokine production, IFNg (IC50), K562-CD19 stimulation, 72 h)?
Its IC50 is greater than 10000 nM.

What about the IC50 [3, 10] of the same compound?
Its IC50 is greater than 10000 nM.

And the IC50 [3, 11]?
Its IC50 is greater than 10000 nM.

And the IC50 [3, 12]?
The IC50 was greater than 10000 nM.

And the IC50 [3, 13]?
Its IC50 is greater than 10000 nM.

What about the IC50 [3, 14] of the same compound?
The IC50 was greater than 10000 nM.

What about the IC50 [3, 15] of the same compound?
Its IC50 is greater than 10000 nM.

What about the IC50 [3, 16] of the same compound?
Its IC50 is greater than 10000 nM.

What about the IC50 [3, 17] of the same compound?
Its IC50 is greater than 10000 nM.

And the IC50 [3, 18]?
Its IC50 is greater than 10000 nM.

And the IC50 [3, 19]?
Its IC50 is greater than 10000 nM.

And the IC50 [3, 20]?
Its IC50 is greater than 10000 nM.

What about the IC50 [3, 21] of the same compound?
The IC50 was greater than 10000 nM.

And the IC50 [3, 22]?
The IC50 was greater than 10000 nM.

What about the IC50 [3, 23] of the same compound?
The IC50 was greater than 10000 nM.

And the IC50 [3, 24]?
The IC50 was greater than 10000 nM.

What about the IC50 [3, 25] of the same compound?
Its IC50 is greater than 10000 nM.

What about the “Suppression of cytokine production, IL-6, % inh.” value ([3]; KIP-1 stimulation) of the same compound?
Its value is 66% inh.

What about the “Suppression of cytokine production, IL-10, % inh.” value ([3]; KIP-1 stimulation) of the same compound?
Its value is 50% inh.

And the “Suppression of cytokine production, MCP-1, % inh.” value ([3]; KIP-1 stimulation)?
Its value is 66% inh.

What about the “Suppression of cytokine production, MIG, % inh.” value ([3]; KIP-1 stimulation) of the same compound?
The value was 50% inh.

And the “Suppression of cytokine production, TNFa, % inh.” value ([3]; KIP-1 stimulation)?
Its value is 75% inh.

With `N#CCC1(n2cc(-c3ncnc4[nH]ccc34)cn2)CN(C2CCN(C(=O)c3ccnc(C(F)(F)F)c3F)CC2)C1` [itacitinib] as the compound, how does the IC50 [3, 4] read?
Its IC50 is less than 100 nM.

What about the IC50 [3, 5] of the same compound?
Its IC50 is 377 nM.

What about the IC50 ([3]; read-out: Suppression of cytokine production, GMCSF (IC50), KIP-1 stimulation, 72 h) of the same compound?
Its IC50 is 273 nM.

What about the IC50 [3, 6] of the same compound?
Its IC50 is 2740 nM.

What about the IC50 [3, 7] of the same compound?
Its IC50 is greater than 10000 nM.

And the IC50 [3, 8]?
The IC50 was greater than 10000 nM.

And the IC50 [3, 9]?
The IC50 was greater than 10000 nM.

What about the IC50 [3, 10] of the same compound?
The IC50 was greater than 10000 nM.

What about the IC50 [3, 11] of the same compound?
The IC50 was 144 nM.

And the IC50 [3, 12]?
The IC50 was less than 100 nM.

And the IC50 ([3]; read-out: Suppression of cytokine production, IL-2Ra (IC50), KIP-1 stimulation, 72 h)?
Its IC50 is less than 100 nM.

And the IC50 ([3]; read-out: Suppression of cytokine production, IL-6 (IC50), CD3/CD28 stimulation, 72 h)?
Its IC50 is less than 100 nM.

What about the IC50 ([3]; read-out: Suppression of cytokine production, IL-6 (IC50), KIP-1 stimulation, 72 h) of the same compound?
The IC50 was 1970 nM.

And the IC50 [3, 13]?
Its IC50 is less than 100 nM.

What about the IC50 [3, 14] of the same compound?
Its IC50 is less than 100 nM.

And the IC50 ([3]; read-out: Suppression of cytokine production, IL-8 (IC50), KIP-1 stimulation, 72 h)?
Its IC50 is less than 100 nM.

And the IC50 [3, 15]?
Its IC50 is less than 100 nM.

What about the IC50 ([3]; read-out: Suppression of cytokine production, IL-10 (IC50), K562-CD19 stimulation, 72 h) of the same compound?
Its IC50 is less than 100 nM.

And the IC50 ([3]; read-out: Suppression of cytokine production, IL-10 (IC50), KIP-1 stimulation, 72 h)?
The IC50 was less than 100 nM.

And the IC50 ([3]; read-out: Suppression of cytokine production, MCP-1 (IC50), CD3/CD28 stimulation, 72 h)?
The IC50 was less than 100 nM.

And the IC50 ([3]; read-out: Suppression of cytokine production, MCP-1 (IC50), K562-CD19 stimulation, 72 h)?
The IC50 was less than 100 nM.

And the IC50 ([3]; read-out: Suppression of cytokine production, MCP-1 (IC50), KIP-1 stimulation, 72 h)?
The IC50 was 2580 nM.

What about the IC50 [3, 16] of the same compound?
Its IC50 is 549 nM.

What about the IC50 ([3]; read-out: Suppression of cytokine production, MIG (IC50), K562-CD19 stimulation, 72 h) of the same compound?
Its IC50 is less than 100 nM.

What about the IC50 ([3]; read-out: Suppression of cytokine production, MIG (IC50), KIP-1 stimulation, 72 h) of the same compound?
Its IC50 is less than 100 nM.

What about the IC50 [3, 17] of the same compound?
The IC50 was 361 nM.

And the IC50 [3, 18]?
The IC50 was 167 nM.

And the IC50 [3, 19]?
The IC50 was 1420 nM.

What about the IC50 [3, 20] of the same compound?
Its IC50 is less than 100 nM.

What about the IC50 [3, 21] of the same compound?
Its IC50 is 149 nM.

What about the IC50 [3, 22] of the same compound?
The IC50 was 553 nM.

What about the IC50 [3, 23] of the same compound?
The IC50 was 1600 nM.

What about the IC50 [3, 24] of the same compound?
The IC50 was less than 100 nM.

What about the IC50 [3, 25] of the same compound?
Its IC50 is 431 nM.

What about the IC50 ([3]; read-out: Suppression of cytokine production, TNFa (IC50), CD3/CD28 stimulation, 72 h) of the same compound?
The IC50 was less than 100 nM.

What about the IC50 ([3]; read-out: Suppression of cytokine production, TNFa (IC50), K562-CD19 stimulation, 72 h) of the same compound?
The IC50 was less than 100 nM.

And the IC50 ([3]; read-out: Suppression of cytokine production, TNFa (IC50), KIP-1 stimulation, 72 h)?
The IC50 was 320 nM.

What about the “Suppression of cytokine production, IFNg (IC50)” value ([3]; K562-CD19 stimulation) of the same compound?
The value was “Suppress”.

And the “Suppression of cytokine production, IL-6 (IC50)” value ([3]; K562-CD19 stimulation)?
The value was “Suppress”.

— patent US12252701B2, “Chimeric antigen receptor T cell therapy” (KITE PHARMA, INC., priority 2020, dated 2025)
